Measurements: patent US10501464B2, “7-oxo-6-(sulfooxy)-1,6-diazabicyclo[3.2.1]octane-2-carboxamide containing compounds and their use in treating bacterial infections” (WOCKHARDT LIMITED, priority 2015, dated 2019)
Where a name gives a salt, the structure may show the parent alone. Read-outs that look alike come from different tables or passages of the source.

Columns and labels:
Assay in all cases: Antibacterial activity, MIC by agar dilution (CLSI)
Type in all cases: cell-based
E. coli 13351 = settings: compound tested alone
Description: (§1) The biological activity of representative compounds according to the invention against various bacterial strains was investigated. In a typical study, overnight grown bacterial cultures were diluted appropriately and inoculated on the agar media containing doubling dilutions of the test compounds. Observations for growth or no growth was performed after 16-20 hours of incubation at 35±2° C. in the ambient air. The overall procedure was performed as per Clinical and Laboratory Standards Institute (CLSI) recommendations, (Clinical and Laboratory Standards Institute (CLSI), Performance Standards for Antimicrobial Susceptibility Testing, 20th Informational Supplement, M07-A9, Volume 32, No. 2, 2012). Molten Mueller Hinton Agar (BD, USA) containing serial dilutions of each antibacterial agent were poured on to the plates and allowed to solidify. Appropriate suspensions from the freshly grown cultures were prepared in normal saline so that about 10^4CFU/spot of the organism was delivered on to the drug containing agar plates using automated multipoint inoculator (Mast, UK). The plates were incubated in Biochemical oxygen demand (BOD) incubator at 37° C. for 18 hours and then examined for growth.
(§2) Method for the determination of MIC: The Minimum Inhibitory Concentration (MIC) determination for the combinations was carried out in Muller Hinton Agar (MHA) (BD, USA) according to Clinical and Laboratory Standards Institute (CLSI) recommendations, (Clinical and Laboratory Standards Institute (CLSI), Performance Standards for Antimicrobial Susceptibility Testing, 20th Informational Supplement, M 100-S20, Volume 30, No. 1, 2010). In short, the test strains were adjusted to deliver about 10^4CFU per spot with a multipoint inoculator (Applied Quality Services, UK). The plates were poured with MHA containing doubling concentration range of representative compounds according to present invention. The plates were inoculated and were incubated at 35° C. for 18 hour. […] The Table 2 depicts the antibacterial activity profile of compounds according to present invention against various multidrug resistant bacterial strains.

E. coli 13352 = settings: compound tested alone
Description: as §1, §2

E. coli 13353 = settings: compound tested alone
Description: as §1, §2

E. coli 7 MP = settings: compound tested alone
Description: as §1, §2

E. coli M 138 = settings: compound tested alone
Description: as §1, §2

E. coli M 36 = settings: compound tested alone
Description: as §1, §2

E. coli M 49 = settings: compound tested alone
Description: as §1, §2

E. coli M 50 = settings: compound tested alone
Description: as §1, §2

[1] = test system: K. pneumoniae ATCC 700603
Description: as §1, §2

K. pneumoniae H 521 = settings: compound tested alone
Description: as §1, §2

K. pneumoniae H 522 = settings: compound tested alone
Description: as §1, §2

K. pneumoniae H 523 = settings: compound tested alone
Description: as §1, §2

K. pneumoniae H 525 = settings: compound tested alone
Description: as §1, §2

P. mirabilis S 137B = settings: compound tested alone
Description: as §1, §2

[2] = Escherichia coli, 13351, E. coli 13351, read-out: MIC
[3] = Escherichia coli, 13352, E. coli 13352, read-out: MIC
[4] = Escherichia coli, 13353, E. coli 13353, read-out: MIC
[5] = Escherichia coli, 7MP, read-out: MIC
[6] = Escherichia coli, M138, E. coli M 138, read-out: MIC
[7] = Escherichia coli, M36, E. coli M 36, read-out: MIC
[8] = Escherichia coli, M49, E. coli M 49, read-out: MIC
[9] = Escherichia coli, M50, E. coli M 50, read-out: MIC
[10] = Klebsiella pneumoniae, ATCC700603, compound tested alone, read-out: MIC
[11] = Klebsiella pneumoniae, H521, K. pneumoniae H 521, read-out: MIC
[12] = Klebsiella pneumoniae, H522, K. pneumoniae H 522, read-out: MIC
[13] = Klebsiella pneumoniae, H523, K. pneumoniae H 523, read-out: MIC
[14] = Klebsiella pneumoniae, H525, K. pneumoniae H 525, read-out: MIC
[15] = Proteus mirabilis, S137B, read-out: MIC

Row | Structure (SMILES) | MIC (E. coli 13351; [2]) [µg/mL] | MIC (E. coli 13352; [3]) [µg/mL] | MIC (E. coli 13353; [4]) [µg/mL] | MIC (E. coli 7 MP; [5]) [µg/mL] | MIC (E. coli M 138; [6]) [µg/mL] | MIC (E. coli M 36; [7]) [µg/mL] | MIC (E. coli M 49; [8]) [µg/mL] | MIC (E. coli M 50; [9]) [µg/mL] | MIC [1, 10] [µg/mL] | MIC (K. pneumoniae H 521; [11]) [µg/mL] | MIC (K. pneumoniae H 522; [12]) [µg/mL] | MIC (K. pneumoniae H 523; [13]) [µg/mL] | MIC (K. pneumoniae H 525; [14]) [µg/mL] | further results
1 | O=C(NNC(=O)[C@@H]1CC[C@@H]2CN1C(=O)N2OS(=O)(=O)O)[C@@H]1C[C@H](n2cncn2)CN1 [Example 29] | 1 | 1 | 0.5 | 2 | 1 | 0.5 | 4 | 0.5 | > 32 | 2 | 2 | 2 | 2 | MIC (P. mirabilis S 137B; [15]): > 32 µg/mL
2 | O=C(NOCC1C[C@H](N2CCCCC2)CN1)[C@@H]1CC[C@@H]2CN1C(=O)N2OS(=O)(=O)O (stereo partly drawn) [Example 18] | 2 | 2 | 1 | 4 | 2 | 2 | 16 | 2 | > 32 | 2 | 2 | 2 | 2 | –
3 | O=C(NNC(=O)[C@@H]1CC[C@@H]2CN1C(=O)N2OS(=O)(=O)O)C1C[C@H](n2ccnc2)CN1 (stereo partly drawn) [Example 34] | – | – | – | – | – | – | – | – | – | – | – | – | – | MIC (E. coli 13351; E. coli 13351): 4 µg/mL; MIC (E. coli 13352; E. coli 13352): 8 µg/mL; MIC (E. coli 13353; E. coli 13353): 4 µg/mL; MIC (E. coli 7 MP): 16 µg/mL; MIC (E. coli M 36; E. coli M 36): 4 µg/mL; MIC (E. coli M 49; E. coli M 49): 4 µg/mL; MIC (E. coli M 50; E. coli M 50): 8 µg/mL; MIC ([1]; compound tested alone): >32 µg/mL; MIC (K. pneumoniae H 521; K. pneumoniae H 521): 8 µg/mL; MIC (K. pneumoniae H 522; K. pneumoniae H 522): 8 µg/mL; MIC (K. pneumoniae H 523; K. pneumoniae H 523): 8 µg/mL; MIC (K. pneumoniae H 525; K. pneumoniae H 525): 8 µg/mL; MIC (P. mirabilis S 137B): >32 µg/mL
4 | CN1CCN([C@H]2CNC(CONC(=O)[C@@H]3CC[C@@H]4CN3C(=O)N4OS(=O)(=O)O)C2)CC1 (stereo partly drawn) [Example 22] | – | – | – | – | – | – | – | – | – | – | – | – | – | MIC (E. coli 13351; E. coli 13351): 8 µg/mL; MIC (E. coli 13352; E. coli 13352): 16 µg/mL; MIC (E. coli 13353; E. coli 13353): 4 µg/mL; MIC (E. coli 7 MP): 16 µg/mL; MIC (E. coli M 138; E. coli M 138): 8 µg/mL; MIC (E. coli M 36; E. coli M 36): 4 µg/mL; MIC (E. coli M 49; E. coli M 49): 8 µg/mL; MIC (E. coli M 50; E. coli M 50): 8 µg/mL; MIC ([1]; compound tested alone): >32 µg/mL; MIC (K. pneumoniae H 521; K. pneumoniae H 521): 8 µg/mL; MIC (K. pneumoniae H 522; K. pneumoniae H 522): 8 µg/mL; MIC (K. pneumoniae H 523; K. pneumoniae H 523): 8 µg/mL; MIC (K. pneumoniae H 525; K. pneumoniae H 525): 8 µg/mL
5 | CN1CCN([C@H]2CNC(CONC(=O)[C@@H]3CC[C@@H]4CN3C(=O)N4OS(=O)(=O)O)C2)CC1 (stereo partly drawn) [Example 21] | 8 | 8 | 4 | 16 | 4 | 4 | 16 | 8 | > 32 | 8 | 4 | 4 | 8 | –
6 | O=C(NOCC1C[C@@H](N2CCCCC2)CN1)[C@@H]1CC[C@@H]2CN1C(=O)N2OS(=O)(=O)O (stereo partly drawn) [Example 19] | 8 | 8 | 4 | > 32 | 8 | 8 | 32 | 8 | > 32 | 8 | 8 | 8 | 8 | –

More lines, main results first:

Row | MIC (E. coli 13351; [2]) [µg/mL] | MIC (E. coli 13352; [3]) [µg/mL] | MIC (E. coli 13353; [4]) [µg/mL] | MIC (E. coli 7 MP; [5]) [µg/mL] | MIC (E. coli M 138; [6]) [µg/mL] | MIC (E. coli M 36; [7]) [µg/mL] | MIC (E. coli M 49; [8]) [µg/mL] | MIC (E. coli M 50; [9]) [µg/mL] | MIC [1, 10] [µg/mL] | MIC (K. pneumoniae H 521; [11]) [µg/mL] | MIC (K. pneumoniae H 522; [12]) [µg/mL] | MIC (K. pneumoniae H 523; [13]) [µg/mL] | MIC (K. pneumoniae H 525; [14]) [µg/mL] | Structure (SMILES) | further results
7 | 4 | 8 | 4 | 16 | 8 | 4 | 16 | 4 | > 32 | 2 | 2 | 2 | 2 | O=C(NNC(=O)[C@@H]1CC[C@@H]2CN1C(=O)N2OS(=O)(=O)O)[C@@H]1C[C@H](n2ccnc2)CN1 [Example 30] | MIC (P. mirabilis S 137B; [15]): > 32 µg/mL
8 | 8 | 16 | 8 | 16 | 4 | 4 | 16 | 8 | > 32 | 8 | 8 | 8 | 8 | O=C(NOCC1C[C@@H](N2CCNCC2)CN1)[C@@H]1CC[C@@H]2CN1C(=O)N2OS(=O)(=O)O (stereo partly drawn) [Example 20] | –
9 | 1 | 1 | 1 | 2 | 1 | 1 | 4 | 1 | > 32 | 1 | 1 | 1 | 1 | O=C(NOC[C@H]1C[C@H](N2CCOCC2)CN1)[C@@H]1CC[C@@H]2CN1C(=O)N2OS(=O)(=O)O [Example 2, Trifluoro acetic acid salt of (2S,5R)-N-{[(2R,4S)-4-(morpholin-4-yl)pyrrolidin-2-yl]methoxy}-7-oxo-6-(sulfooxy)-1,6-diazabicyclo[3.2.1]octane-2-carboxamide] | –
10 | 8 | 8 | 4 | 16 | 4 | 4 | 16 | 8 | > 32 | 8 | 8 | 8 | 8 | O=C(NOCC1C[C@H](N2CCOCC2)CN1)[C@@H]1CC[C@@H]2CN1C(=O)N2OS(=O)(=O)O (stereo partly drawn) [Example 17] | –
